Measured values published in patent publication US10828309B2, “Dermocosmetic or pharmaceutical use of a composition comprising at least one inhibitor of some chemoattractant cytokines” (GREENPHARMA, priority 2014, dated 2020).
Like-named read-outs stand apart in the source and are kept apart here.

Key:
CCL17 = biological target: T1, CCL17 (Homo sapiens, UniProt Q92583); test: Interaction affinity with CCL17 by fluorescence extinction of tryptophan residues; type: binding; settings: CCL17 1.5 μm, excitation 285 nm
T1 sequence (Q92583 24-94): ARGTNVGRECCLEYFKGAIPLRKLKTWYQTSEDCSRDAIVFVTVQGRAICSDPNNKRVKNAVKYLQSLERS
Protocol: Briefly: the fluorescence measurements are carried out on a spectrofluorimeter Fluorolog 3 (JobinYvon/Spex) in a quartz cuvette. […] The measurements are carried out at 20° C. and the solutions are stirred using a magnetic stir bar. The recorded emission spectra are corrected by subtraction of the emission spectrum of the compound to be tested alone.

CCL22 = biological target: T2, CCL22 (Homo sapiens, UniProt O00626); test: Inhibition of calcium response induced by CCL22 in cells expressing CCR4 (Indo-1); type: cell-based; settings: molecules at 10 μm, read-out: Inhibition of calcium responses induced by CCL22 (%)
T2 sequence (O00626 25-93): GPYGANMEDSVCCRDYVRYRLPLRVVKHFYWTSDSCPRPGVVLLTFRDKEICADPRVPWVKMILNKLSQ
Protocol: In order to enable an easy recording of the responses associated to the CCR4 receptor, the cDNA which allows its expression is cloned in the plasmid pIRES (ClonTech) in fusion with the GFP protein, according to Vollmer et al. (1999), which enables to easily measure the expression of the chimeric EGFP-CCR4 receptor. HEK 293 cells (ATCC) are cultured in minimal essential medium MEM (Invitrogen) in the presence of 10% of fetal calf serum (Gibco-BRL), 100 U/mL of penicillin (Invitrogen), 100 μg/mL of streptomycin (Invitrogen) and 2 mM of L-glutamine (Invitrogen) at 37° C. in water-saturated atmosphere and containing 5% of 002. The cells are transfected according to the calcium phosphate precipitate method of Chen ant Okayama, 1986, and the cells having incorporated the expression plasmid are selected with 600 μg/mL of geneticin G-418 (PAA) for 5 weeks. The clones are selected after having been characterized by fluorescence microscopy and cytometric analysis by FACS (fluorescence assisted cell sorting).
(§1) In order to enable an easy recording of the cell responses associated to the CCR4 receptor, we modify its natural coupling to the inhibition of AMPc production to a coupling to the phospholipase C which enables calcium measurements. We produce for this purpose the chimeric protein Gqi5 by directed mutagenesis of the 5 las amino acids of Gq replaced by their homologues of Gi. The cells expressing the CCR4 receptor are transfected with the plasmid pCNA3.1 in which the cDNA encoding Gqi5 has been incorporated. The recordings of calcic responses are performed the day after de transfection.
(§2) The cells are loaded with a fluorescent calcium indicator, INDO-1, according to the protocol provided by the provider (Molecular probes), distributed in microplate wells and placed in a fluorescence reader-pipettor (FlexStation, Molecular devices).
Intracellular calcium elevation is measured by fluorescence intensity change at 401 and 475 nm (excitation 355 nm). Measure points are recorded every 5 s for 150 s for each well. The molecules are tested in the presence of 5 nM of CCL17 chemokine (commercial).
The response develops in a few seconds and fades with time for reaching the return in approximately 2 minutes for a CCL17 chemokine concentration of 5 to 10 nM in HEK 293 cells expressing CCR4. If the molecules to be tested are preincubated with chemokine [CK+N] and if the mixture is added to the cells, we observe a strong decrease in the amplitude of the response if the molecule to be tested is a neutralizing ligand of the chemokine. Conversely, when the neutralizing ligand is preincubated with the cells expressing the receptor [CKR+N] we observe a much smaller decrease of the amplitude of the response.
The analysis of the molecules selectivity is carried out by measuring the inhibition (at the concentration of 10 μm) of the response evoked by other chemokines (5 μm) on their respective receptors. Thus, in FIG. 3, the molecules have been tested on the pairs CCL2/CCR2, CCL3/CCR5, CCL17/CCR4, CCL22/CCR4, […], CXCL11/CXCR3, CXCL12/CXCR4.

CCL17 chemokine = biological target: T3, CCL17 chemokine (Homo sapiens, UniProt Q92583); test: Inhibition of calcium response induced by CCL17 in HEK 293 cells expressing CCR4 (Indo-1); type: cell-based
T3 construct: purchased; host or cells: HEK 293 cells stably transfected with EGFP-CCR4, transiently transfected with Gqi5
T3 sequence (Q92583 24-94): T1 sequence (Q92583 24-94)
Protocol: HEK 293 cells (ATCC) are cultured in minimal essential medium MEM (Invitrogen) in the presence of 10% of fetal calf serum (Gibco-BRL), 100 U/mL of penicillin (Invitrogen), 100 μg/mL of streptomycin (Invitrogen) and 2 mM of L-glutamine (Invitrogen) at 37° C. in water-saturated atmosphere and containing 5% of 002. […] The clones are selected after having been characterized by fluorescence microscopy and cytometric analysis by FACS (fluorescence assisted cell sorting).
as §1, §2
Measure points are recorded every 5 s for 150 s for each well. The molecules are tested in the presence of 5 nM of CCL17 chemokine (commercial).
The molecules are tested at the concentration of 10 μm. The concentration of CCL17 is 5 nM.

COX-1 = biological target: T4, COX-1 (Homo sapiens, UniProt P23219); test: COX-1 activity by PGE2 production in monocytes treated with arachidonic acid; type: cell-based; settings: up to 250 μM
T4 construct: endogenous in cells; host or cells: human monocytes in culture
Protocol: (§3) Determination of the Activity of COX 1 and COX 2 Cyclooxygenases on Human Monocytes in Culture.
COX-1: the release of COX-1 mediated prostaglandin E2 (PGE2) is determined by the arachidonic acid method. […] After 15 minutes of stimulation, the activity of COX-1 is measured by determination of the production of PGE2. Aspirin (ASS) a known inhibitor of COX-1 is used as a control inhibitor.

COX-2 = biological target: T5, COX-2 (Homo sapiens, UniProt P35354); test: COX-2 activity by PGE2 production in LPS-induced monocytes; type: cell-based; settings: LPS-treated monocytes
T5 construct: endogenous in cells; host or cells: human monocytes in culture, LPS-induced
T5 sequence (P35354 18-604): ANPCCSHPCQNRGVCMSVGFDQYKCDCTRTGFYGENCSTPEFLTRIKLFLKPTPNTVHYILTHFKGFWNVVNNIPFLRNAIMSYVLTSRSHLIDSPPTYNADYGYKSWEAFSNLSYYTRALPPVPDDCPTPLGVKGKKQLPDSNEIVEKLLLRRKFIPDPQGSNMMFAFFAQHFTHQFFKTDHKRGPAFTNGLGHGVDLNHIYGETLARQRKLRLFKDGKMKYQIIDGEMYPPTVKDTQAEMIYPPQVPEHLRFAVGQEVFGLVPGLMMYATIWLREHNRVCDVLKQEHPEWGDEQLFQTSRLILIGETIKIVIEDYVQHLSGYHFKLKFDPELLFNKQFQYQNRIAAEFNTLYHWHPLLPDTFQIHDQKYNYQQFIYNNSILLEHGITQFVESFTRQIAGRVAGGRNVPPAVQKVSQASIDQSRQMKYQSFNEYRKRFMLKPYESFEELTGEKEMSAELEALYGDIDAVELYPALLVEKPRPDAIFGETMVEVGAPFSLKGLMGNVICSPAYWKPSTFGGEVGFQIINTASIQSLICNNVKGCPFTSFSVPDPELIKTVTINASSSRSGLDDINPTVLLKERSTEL
Protocol: as §3
COX-2: monocytes are incubated with LPS (10 U/ml) for 24 h in order to induce COX-2 synthesis. […] The arachidonic acid is added 15 minutes after the compounds to be tested, and 15 minutes later the production of PGE2 is determined.

Hacat cells [1] = test: Human keratinocytes migration assay (in vitro wound-healing test in a cell monolayer); type: cell-based
Protocol: It is actually known that, in chronic pathologies an important cell migration may promote de formation of pruritus, one of the signs of dermatosis. The immortalized human keratinocytes obtained from the DKFZ (Heidelberg, Germany) are cultivated in Dulbecco medium modified by Eagle (DMEM, Invitrogen) supplemented with 10% of fetal calf serum (Gibco-BRL) and 100 U/ml of penicillin (Invitrogen), 100 μg/ml of streptomycin (Invitrogen) and 2 mM of L-glutamine (Invitrogen) at 37° C. and 5% of CO2. The wells of a culture plate of 24 well are inoculated with 200,000 cells and the culture is maintained until formation of a confluent cell monolayer. The cell monolayer is then damaged by performing a linear gap (scratch) using a sterile pipette head of 0.1-10 μL. […] The effect of the molecules alone is also recorded in different wells. In order to block cell proliferation, each well receives a dose of 1 μg/ml of mitomycin (Sigma-Aldrich). The culture plates are arranged in the IncuCyte apparatus (Essence Bioscience) which records the growth on the cell monolayer by transmitted imaging in cell culture conditions (37° C., 5% CO2, water-saturated atmosphere) for 72 h. Phase-contrast images are collected every 2 hours. Healing is defined (quantified) as the ratio of the width of the scar at time t and time 0. The experiment is repeated three times per condition.

human monocytes = test: Cytotoxicity on human monocytes, Alamar blue assay; type: cell-based; settings: human monocytes with LPS, 5 concentrations, 24 hours
Protocol: Monocytes are inoculated in plates of 96 wells (approx. 5000 cells/well of 200 μl) for the Alamar blue assay.
After 24 hours, Alamar blue fluorescence is measured.

Hacat cells [2] = test: Cytotoxicity measurement, WST-1 metabolic activity test; type: cell-based, human; settings: 0.3 μM, 10 μM or 30 μM, 72 hours
[3] = HEK293, molecules at 10 μm, CCL17 5 nM, HEK 293 cells expressing CCR4, read-out: Inhibition of calcium responses induced by CCL17 (%)
[4] = HEK293, read-out: Inhibition of calcium responses induced by CCL17 (%)

Row | inhibition at 10 µM (CCL17 chemokine; [3]) | SMILES | inhibition at 10 µM (CCL22) | inhibition at 10 µM (CCL17 chemokine; [4]) | further results
1 | – | COc1cc2nc(N3CCC(N4CCCCC4)CC3)nc(NC3CCCCCC3)c2cc1OC [C-021, reference compound] | – | – | Fluorescence extinction of CCL17 (intrinsic tryptophan fluorescence) (CCL17): no signal
2 | 0% | Cc1nc2c(=O)[nH]c(=O)[nH]c2[nH]1 [GPN062] | 0% | – | –
3 | – | CC(C)=CCn1cnc2c1c(=O)n(C)c(=O)n2C [GPN279, 3,7-dihydro-1,3-dimethyl-7-(3-methyl-2-butenyl)-1H-purin-2,6-dione] | 0% | – | COX-1 inhibition (PGE2 production) (COX-1): not a COX-1 inhibitor; Effect on COX-2 activity (PGE2 production) (COX-2; beyond 100 μM): slight increase in COX-2 activity; Effect on COX-2 activity (PGE2 production) (COX-2; up to the dose of 100 μM): no effect; Effect on cell migration accelerated by the CCL17 chemokine (Hacat cells [1]; Hacat monolayer, CCL17 100 ng/ml, 72 hours): abolished; Dose-response relationship on Hacat cell monolayer healing (Hacat cells [1]; with CCL17, 0.3 μM, 1 μM, 10 μM): its effect depends on the dose; Effect of the molecule alone on Hacat cell monolayer healing (Hacat cells [1]; without CCL17): does not have an effect; Inhibition of calcium responses induced by CCL17 (%) (CCL17 chemokine; molecules at 10 μm, CCL17 5 nM, HEK 293 cells expressing CCR4): 42 ± 4%; Cytotoxicity by Alamar blue (human monocytes): not cytotoxic; Activity of the mitochondrial enzyme (WST-1, absorbance 450 nm) (Hacat cells [2]): does not affect enzymatic activity; Fluorescence extinction of CCL17 (intrinsic tryptophan fluorescence) (CCL17): fluorescence extinction of CCL17 is observed
4 | – | CCCCn1cnc2c1c(=O)n(C)c(=O)n2C [GPS008658, 3,7-dihydro-7-butyl-1,3-dimethyl-1H-purine-2,6-dione] | 32 ± 8% | 40 ± 9% | –
5 | – | CC(C)Cn1cnc2c1c(=O)n(C)c(=O)n2C [GPS008659, 3,7-dihydro-7-isobutyl-1,3-dimethyl-1H-purine-2,6-dione] | 5 ± 5% | 36 ± 7% | –
6 | – | C=CCn1cnc2c1c(=O)n(C)c(=O)n2C [GPS008660, 3,7-dihydro-7-allyl-1,3-dimethyl-1H-purine-2,6-dione] | 0% | 19 ± 5% | –
7 | 0% | CCCCC(CC)Cn1cnc2c1c(=O)n(C)c(=O)n2C (stereo not shown) [GPS008661, 3,7-dihydro-7-(2-ethylhexyl)-1,3-dimethyl-1H-purine-2,6-dione] | 0% | – | –
8 | 0% | CC(C)Cn1c(=O)n(C)c(=O)c2nc[nH]c21 [IBMX, reference compound] | 0% | – | –
9 | – | Cn1c(=O)c2[nH]cnc2n(C)c1=O [Theophylline, reference compound] | 0% | 0% | –

Row | SMILES | inhibition at 10 µM (CCL17 chemokine; [3]) | inhibition at 10 µM (CCL22) | inhibition at 10 µM (CCL17 chemokine; [4]) | further results
10 | Cn1c(=O)c2c(ncn2C)n(C)c1=O [Caffeine, reference compound] | 0% | 0% | – | –
